Data reported in patent publication US20180306819A1, “ANTI-PLATELET RESPONSE AND REACTIVITY TEST USING SYNTHETIC COLLAGEN” (JNC CORPORATION, priority 2012, published 2018).

Test system: normal human platelet rich plasma
Experiment: Agonist-induced platelet aggregation in platelet rich plasma, PAP 8E aggregometer
Type: cell-based
Conditions: non-aspirinized plasma; for effect on ADP-induced aggregation: ADP 10 μM; for effect on Bio/Data collagen-induced aggregation: Bio/Data collagen 190 μg/mL; for effect on Chrono Log collagen-induced aggregation: Chrono Log collagen 10 μg/mL; for effect on arachidonic acid-induced aggregation: arachidonic acid 500 μg/mL; for effect on aggregation induced by lower concentrations of synthetic collagen: synthetic collagen 32 ng/mL and lower (32, 16, 8 ng/mL); for effect on aggregation induced by 64 ng/mL synthetic collagen: synthetic collagen 64 ng/mL
Protocol: ADP was obtained from Bio/Data Corporation, Horsham, Pa. Each vial was reconstituted with 1 mL of deionized water to make a 100 μM working solution. The final concentration of ADP in the aggregation cuvette was 10 μM.
Arachidonic acid was obtained from Bio/Data Corporation, Horsham, Pa. Each vial was reconstituted with 0.5 mL deionized water to make a 5 mg/mL working solution. The final concentration of arachidonic acid in the aggregation cuvette was 500 μg/mL.
Collagen was obtained from Bio/Data Corporation, Horsham, Pa. Each vial was reconstituted with 0.5 mL deionized water to make a 1.9 mg/mL working solution. The final concentration of Bio/Data collagen in the aggregation cuvette was 190 μg/mL.
Collagen was obtained from Chrono Log Corporation, Havertown, Pa. as a 1 mg/mL solution. A working solution of 100 μg/mL was made by dilution with physiologic saline. The final concentration of Chrono Log collagen in the aggregation cuvette was 10 μg/mL.
Synthetic collagen was provided by JNC Corporation, Yokohama, Japan at working concentrations of 80, 160, 320 and 640 ng/mL. The final concentrations of synthetic collagen in the aggregation cuvette were 64, 32, 16 and 8 ng/mL.
Approval for the collection of whole blood from healthy human volunteers was granted from the Institutional Review Board of the Health Sciences Division of Loyola University Chicago. Whole blood was drawn using a double syringe technique from the antecubital vein and anticoagulated by the addition of 1 part 3.2% sodium citrate to (9 parts blood to 1 part citrate). Citrated blood was centrifuged at 80×g at room temperature for 15 minutes to make platelet rich plasma (PRP). Supernatant PRP was collected and kept at room temperature in capped tubes. The remaining citrated blood was recentrifuged at 1,100×g for 15 minutes to make platelet poor plasma (PPP). The platelet count of the PRP was determined using an ICHOR II Analyzer, Helena Laboratories, Beaumont, Tex. Platelet count in the PRP was adjusted to 250,000-300,000/μl by the addition of homologous PPP.
Platelet aggregation was measured using a PAP 8E platelet aggregometer (Bio/Data). Each well was blanked using PPP. 25 μl of saline or antiplatelet drug and 200 μl of PRP were added to cuvettes containing magnetic stir bars and incubated for three minutes to equilibrate the sample to 37° C. 25 μl of agonist was added to each cuvette and the aggregation profile was monitored until a plateau was achieved. Results were tabulated in terms of maximal aggregation level. Under some reaction conditions, reversible aggregation was observed. This was most commonly observed with ADP and arachidonic acid-induced aggregation in the presence of ticagrelor or cilostazol. Final aggregation levels were also tabulated.

| Molecule | inhibition at 25 µM (Homo sapiens, Platelet, drug at 25 μM, read-out: inhibition of ADP-induced aggregation) | effect on ADP-induced aggregation | effect on ADP-induced aggregation (listed as Cilostazol) | effect on Bio/Data collagen-induced aggregation | effect on Chrono Log collagen-induced aggregation | effect on arachidonic acid-induced aggregation | arachidonic acid-induced aggregation level (drug at concentrations ≥12.5 μM, 95% in the absence of drug) | effect on aggregation induced by lower concentrations of synthetic collagen | effect on aggregation induced by 64 ng/mL synthetic collagen | inhibition of agonist-induced aggregation (all agonists) (concentration range 1.25-5 μg/mL, FIG. 11) |
| --- | --- | --- | --- | --- | --- | --- | --- | --- | --- | --- |
| O=C1CCc2cc(OCCCCc3nnnn3C3CCCCC3)ccc2N1 [cilostazol, Cilostazol] | ~30% | minimally affected | weaker, concentration-dependent inhibition | did not inhibit aggregation | did not inhibit aggregation | strongly inhibited | ~20% | the anti-platelet effect of higher concentrations of cilostazol could be observed | did not inhibit aggregation | – |
| CCCSc1nc(N[C@@H]2C[C@H]2c2ccc(F)c(F)c2)c2nnn([C@@H]3C[C@H](OCCO)[C@@H](O)[C@H]3O)c2n1 [ticagrelor, (1S,2S,3R,5S)-3-[7-[[(1R,2S)-2-(3,4-difluorophenyl)cyclopropyl]amino]-5-propylsulfanyltriazolo[4,5-d]pyrimidin-3-yl]-5-(2-hydroxyethoxy)cyclopentane-1,2-diol] | – | strongly inhibited | – | Neither Bio/Data collagen, Chrono Log collagen nor 64 ng/mL synthetic collagen was markedly impacted | Neither Bio/Data collagen, Chrono Log collagen nor 64 ng/mL synthetic collagen was markedly impacted | inhibited to a similar extent | – | antiplatelet effects of Ticagrelor® could be identified | Neither Bio/Data collagen, Chrono Log collagen nor 64 ng/mL synthetic collagen was markedly impacted | – |
| abciximab: Fab Fragment Chimeric monoclonal antibody 7E3 (GP IIbIIIa receptor blocker) (antibody, chains of the INN, looked up, V domains shown, Fab) VH: EVQLQQSGTVLARPGASVKMSCEASGYTFTNYWMHWVKQRPGQGLEWIGAIYPGNSDTSYIQKFKGKAKLTAVTSTTSVYMELSSLTNEDSAVYYCTLYDGYYVFAYWGQGTLVTVSA VL: EIVLTQSPVTLSVTPGDSVSLSCRASRDISNNLHWFQQTSHESPRLLIKYASQSMSGIPSRFSGSGSGTDFTLSINSVETEDFGMYFCQQTNSWPYTFGGGTKLEIK | – | inhibited aggregation | – | only observed at the 5 μg/mL concentration | only observed at the 5 μg/mL concentration | most sensitive for detecting the presence of abciximab | – | most sensitive for detecting the presence of abciximab | inhibited by abciximab to a comparable degree | concentration-dependent inhibition |
